{
  "source": "patent US20100260694A1",
  "about": "“Methionine Sulfoxide Peptide, Compositions And Methods Of Use” (priority 2009, published 2010)",
  "key": {"Msr [1]": {"tested_on": "Msr", "experiment": "Msr expression in NHEK by RT-PCR and gel electrophoresis", "type": "cell-based, human", "conditions": "for level of Msr compared to a housekeeping gene: keratinocytes, RT-PCR", "method": "The first material tried was oxidized methionine (the sulfoxide form). […] However, in an experiment performed in February of 2004, an oxidized polypeptide gave very good results. Investigations continued along those lines.\n(§1) NHEK cells were incubated overnight in culture medium (control) and in culture medium containing oxidized peptide and in culture medium containing unoxidized peptide (control). Concentrations (mg/mL) of the oxidized peptide included 0.01, 0.1 and 0.25. The unoxidized peptide (i.e. Met-enkephalin) was tested only at 0.25 mg/mL. After incubation, mRNA was extracted from the cells and cDNA was prepared by reverse transcription polymerase chain reaction (RT-PCR). Samples were probed for Msr via gel electrophoresis using β-microglobulin as a control."}, "elastase": {"target": "T1, elastase (Sus scrofa, UniProt P00772)", "T1 construct": "purchased Molecular Probes", "T1 sequence (P00772 27-266)": "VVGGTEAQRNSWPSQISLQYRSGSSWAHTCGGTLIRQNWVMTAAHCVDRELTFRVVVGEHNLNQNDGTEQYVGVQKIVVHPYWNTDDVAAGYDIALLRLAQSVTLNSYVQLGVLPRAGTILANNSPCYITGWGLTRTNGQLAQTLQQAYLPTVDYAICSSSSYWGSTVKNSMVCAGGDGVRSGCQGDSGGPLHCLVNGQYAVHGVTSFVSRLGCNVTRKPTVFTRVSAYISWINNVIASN", "experiment": "Elastase activity assay (Molecular Probes) adapted for inhibition with α1-antitrypsin", "type": "biochemical", "method": "(§2) Methods: An elastase assay from Molecular Probes was utilized and adapted for inhibition with α1-antitrypsin. Fluorescence was measured by excitation at 485 nm and emission at 525 nm in a CytoFluor plate reader.\nThis was achieved by incubating 0.1 mg/ml elastin and 0.05 units/ml elastase with α1-antitrypsin in a dose-dependent manner (2.5-50 ug/sample). The results are shown in FIG. 8, where con=control; E=elastase; I=inhibitor (included with assay); AT=α1-antitrypsin.\nThis was done by oxidizing 10 μg of α1-antitrypsin with hydrogen peroxide.\n(§3) This was achieved by incubating the A1AT that had been oxidized in 30 mM H2O2 with 0.7 mg/ml msrA and 10 mM DTT for 2 hours. […] We start with 100% elastase. As before, α1-antitrypsin (AT) removes about 90% of the elastase activity (bar labeled Elastase+AT)."}, "Msr [2]": {"tested_on": "Msr", "experiment": "Msr in NHEK, confirmation by Western blotting", "type": "cell-based, human", "conditions": "overnight incubation", "method": "as §1"}, "[3]": {"experiment": "UV spectrum of the peptide", "type": "physicochemical", "conditions": "at 290 nm"}, "[4]": {"tested_on": "Epidermal Full Thickness 200 (EFT 200) living skin models", "experiment": "Sunburn Cell production in UVB-irradiated EFT 200 living skin models", "type": "cell-based", "conditions": "1 mg/ml for 48 hours, then 100 mJ/cm^2 UVB", "method": "Methods: Epidermal Full Thickness 200 (EFT 200) living skin models were obtained from MatTek and incubated for 48 hours in media with or without 1 mg/ml of the MetO-enkephalin. The oxidized peptide can be stored at room temperature. Because the peptide is already oxidized, it has relative low reactivity in storage. Two ml of media were added beneath the living skin models, which were situated on a transwell membrane to allow the maintenance of an air/aqueous interface. After 48 hours, the living skin models were exposed to 100 mJ/cm^2 UVB, re-fed, and incubated overnight. The next day, the samples were fixed in 10% formalin and sent to Paragon Bioservices for histological sectioning and H&E staining. Five contiguous microscopic fields for each section were evaluated for the presence of SBC by counting the number of SBC and uninvolved cells and expressing SBC as a percentage of the total. Sunburn Cells are characterized by eosinophilic staining of the cytoplasm and pyknotic nuclei (condensed chromatin)."}, "keratinocytes": {"tested_on": "keratinocytes", "experiment": "Cytotoxicity in keratinocytes", "type": "cell-based", "conditions": "various concentrations, epidermal cells / keratinocytes"}, "oxidized α1-antitrypsin": {"target": "oxidized α1-antitrypsin (Homo sapiens, UniProt P01009)", "sequence (P01009 25-418)": "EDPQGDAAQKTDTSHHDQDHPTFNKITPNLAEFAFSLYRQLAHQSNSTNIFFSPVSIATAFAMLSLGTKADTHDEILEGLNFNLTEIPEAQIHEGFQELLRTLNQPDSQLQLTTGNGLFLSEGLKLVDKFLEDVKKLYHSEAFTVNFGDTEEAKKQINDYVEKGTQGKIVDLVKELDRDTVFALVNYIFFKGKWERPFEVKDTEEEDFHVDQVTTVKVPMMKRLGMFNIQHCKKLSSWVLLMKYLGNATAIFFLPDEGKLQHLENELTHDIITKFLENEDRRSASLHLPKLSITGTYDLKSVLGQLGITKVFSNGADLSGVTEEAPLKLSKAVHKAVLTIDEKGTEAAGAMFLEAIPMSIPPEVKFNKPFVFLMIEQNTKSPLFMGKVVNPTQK", "experiment": "Reversal of α1-antitrypsin oxidation by msrA, read out in elastase activity assay", "type": "biochemical", "conditions": "oxidized A1AT incubated with 0.7 mg/mL MsrA and 10 mM DTT for 2 hours", "method": "as §2, §3"}},
  "data": [
    {"molecule": "C[S+]([O-])CC[C@H](N)C(=O)O", "note": "(some centres unmarked) [oxidized methionine, methionine sulfoxide]", "values": [
      {"measurement": "level of Msr compared to a housekeeping gene", "setting": "Msr [1]", "result": "not significantly raised"}
    ]},
    {"molecule": "ATox: α1-antitrypsin oxidized in 30 mM H2O2", "values": [
      {"measurement": "elastase activity with oxidized α1-antitrypsin", "setting": "elastase; bar Elastase+ATox, FIG. 10, oxidized in 30 mM H2O2", "result": "all of the elastase activity returns"}
    ]},
    {"molecule": "Oxidized bovine serum albumin: Oxidized bovine serum albumin, a comparatively large protein", "values": [
      {"measurement": "level of Msr compared to a housekeeping gene", "setting": "Msr [1]", "result": "without success"}
    ]},
    {"molecule": "CSCC[C@H](NC(=O)[C@@H](Cc1ccccc1)NC(=O)CNC(=O)CNC(=O)[C@H](N)Cc1ccc(O)cc1)C(=O)O", "note": "[Met-enkephalin, Met- enkephalin, reference compound]", "values": [
      {"measurement": "increase in Msr expression", "setting": "Msr [1]; NHEK, overnight incubation, 0.25 mg/mL", "result": "no significant increase"},
      {"measurement": "Msr mRNA in treated cells by Western blotting", "setting": "Msr [2]", "result": "no significant increases of Msr mRNA"}
    ]},
    {"molecule": "Tyr - Gly - Gly - Phe - MetO [MetO-enkephalin]", "values": [
      {"measurement": "extinction coefficient", "setting": "[3]", "result": 145.5},
      {"measurement": "k-value of absorbance", "setting": "[3]", "result": 0.24},
      {"measurement": "average percent reduction in SBC from both trials", "setting": "[4]", "result": 31.1, "unit": "%"},
      {"measurement": "cytotoxicity", "setting": "keratinocytes", "result": "low cytotoxicity"},
      {"measurement": "average increase in Msr expression", "setting": "Msr [1]; NHEK, overnight incubation, oxidized peptide concentration 0.01%", "result": 18, "unit": "%"},
      {"measurement": "average increase in Msr expression", "setting": "Msr [1]; NHEK, overnight incubation, oxidized peptide concentration 0.1%", "result": 28, "unit": "%"},
      {"measurement": "average increase in Msr expression", "setting": "Msr [1]; NHEK, overnight incubation, oxidized peptide concentration 0.25%", "result": 25.4, "unit": "%"},
      {"measurement": "Msr mRNA in treated cells by Western blotting", "setting": "Msr [2]", "result": "increases of Msr mRNA"}
    ]},
    {"molecule": "α1-antitrypsin: serin protease inhibitor made in the liver, inhibits a wide variety of proteases", "values": [
      {"measurement": "elastase inhibition after oxidation with H2O2", "setting": "elastase; 10 μg α1-antitrypsin oxidized with 30 mM H2O2, 3 hours, ambient temperature", "result": "almost all elastase inhibition provided by α1-antitrypsin, is lost"},
      {"measurement": "elastase activity (fluorescence), dose dependence", "setting": "elastase; 0.1 mg/ml elastin, 0.05 units/ml elastase, α1-antitrypsin 2.5-50 ug/sample", "result": "Fluorescence decreases with increasing concentration of α1-antitrypsin"},
      {"measurement": "elastase activity removed", "setting": "elastase; bar Elastase+AT, FIG. 10", "result": "about 90%"}
    ]},
    {"molecule": "MsrA: form of Msr involved in the reduction of the S-stereoisomer (protein, UniProt Q9UJ68 24-235, looked up) Mitochondrial peptide …: GNSASNIVSPQEALPGRKEQTPVAAKHHVNGNRTVEPFPEGTQMAVFGMGCFWGAERKFWVLKGVYSTQVGFAGGYTSNPTYKEVCSEKTGHAEVVRVVYQPEHMSFEELLKVFWENHDPTQGMRQGNDHGTQYRSAIYPTSAKQMEAALSSKENYQKVLSEHGFGPITTDIREGQTFYYAEDYHQQYLSKNPNGYCGLGGTGVSCPVGIKK", "values": [
      {"measurement": "re-inhibition of elastase activity", "setting": "oxidized α1-antitrypsin", "result": "over 59%"}
    ]}
  ]
}
